The target of this experiment is T1, human Y4 receptor (Homo sapiens, UniProt P50391).
T1 construct: expressed in transfected cells
Nature of the experiment: NPY4 cAMP HTRF Agonist Assay (inhibitory cAMP assay, Gi activation by Y4 agonism). In kind it is cell-based. The note with it: human Y4 stable CHO clonal cells, forskolin + IBMX; read-out: NPY4 cAMP HTRF Agonist Assay EC50. The essentials: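 CHO cells stably expressing human Y4, 5000/well, exposed to compound with forskolin and IBMX in PBS for 30 min at room temperature. Gi-mediated inhibition of cAMP then measured by HTRF after 1 h with d2-conjugate and anti-cAMP cryptate.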
On the technique in general: TR-FRET usually uses a lanthanide donor and a delayed reading to cut background.

pEC50: −log10 of the molar value.

What is called pEC50 is the EC50 on a negative log10 scale, so that one unit is a factor of ten.

T1 sequence (P50391 whole entry): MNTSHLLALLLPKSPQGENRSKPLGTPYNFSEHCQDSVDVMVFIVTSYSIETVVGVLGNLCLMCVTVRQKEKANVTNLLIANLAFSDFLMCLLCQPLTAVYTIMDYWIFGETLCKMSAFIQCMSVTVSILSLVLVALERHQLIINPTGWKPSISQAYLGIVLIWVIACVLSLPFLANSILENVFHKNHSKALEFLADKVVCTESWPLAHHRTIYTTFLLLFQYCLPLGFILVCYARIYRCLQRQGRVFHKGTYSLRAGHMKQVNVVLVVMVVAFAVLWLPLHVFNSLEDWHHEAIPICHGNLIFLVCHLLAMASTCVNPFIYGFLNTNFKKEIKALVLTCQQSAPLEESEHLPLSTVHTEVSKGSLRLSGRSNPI

On to `FC(F)(F)Oc1ccc(-c2cnc(N[C@@H]3CCCC[C@H]3N[C@H]3CCCN(c4ncc(C(F)(F)F)cn4)C3)o2)cc1` [Example 80, (1R,2R)—N1-(5-(4-(Trifluoromethoxy)phenyl)oxazol-2-yl)-N2-((S)-1-(5-(trifluoromethyl)pyrimidin-2-yl)piperidin-3-yl)cyclohexane-1,2-diamine bis-trifluoroacetate], for which the pEC50 is 6.62.

Take `N#Cc1cnc(N2CCC[C@H](N[C@@H]3CCCC[C@H]3Nc3ncc(-c4ccc(OC(F)(F)F)cc4)o3)C2)nc1` [Example 81, 2-((S)-3-((1R,2R)-2-(5-(4-(Trifluoromethoxy)phenyl)oxazol-2-ylamino)cyclohexylamino)piperidin-1-yl)pyrimidine-5-carbonitrile bis-trifluoroacetate]: the pEC50 is 7.39.

Turning to `N#Cc1cnc(N2CCC[C@H](N[C@@H]3CCCC[C@H]3Nc3ncc(-c4ccccc4)o3)C2)nc1` [Example 82, 2-((S)-3-((1R,2R)-2-(5-Phenyloxazol-2-ylamino)cyclohexylamino)piperidin-1-yl)pyrimidine-5-carbonitrile], the pEC50 is 6.97.

With `Cc1nnc(-c2ccc(N3CCC[C@H](N[C@@H]4CCCC[C@H]4Nc4ncc(-c5ccccc5)o4)C3)cc2)o1` [Example 83, (1R,2R)—N1-((S)-1-(4-(5-Methyl-1,3,4-oxadiazol-2-yl)phenyl)piperidin-3-yl)-N2-(5-phenyloxazol-2-yl)cyclohexane-1,2-diamine bis-trifluoroacetate], the pEC50 is 8.05.

Consider `Cc1nnc(-c2ccc(N3CCC[C@H](N[C@@H]4CCCC[C@H]4Nc4nccc(-c5ccccc5)n4)C3)cc2)o1` [Example 84, (1R,2R)—N1-((S)-1-(4-(5-Methyl-1,3,4-oxadiazol-2-yl)phenyl)piperidin-3-yl)-N2-(4-phenylpyrimidin-2-yl)cyclohexane-1,2-diamine bis-trifluoroacetate], for which the negative logarithm of the EC50 (pEC50) is 8.05.

With `Cc1nnc(-c2ccc(N3CCC[C@H](N[C@@H]4CCCC[C@H]4Nc4ncc(-c5ccc(OC(F)(F)F)cc5)o4)C3)cc2)o1` [Example 85, (1R,2R)—N1-((S)-1-(4-(5-Methyl-1,3,4-oxadiazol-2-yl)phenyl)piperidin-3-yl)-N2-(5-(4-(trifluoromethoxy)phenyl)oxazol-2-yl)cyclohexane-1,2-diamine], the pEC50 was 6.84.

For `FC(F)(F)Oc1ccc(N2CCC[C@H](N[C@@H]3CCCC[C@H]3Nc3ncc(-c4ccccc4)o3)C2)cc1` [Example 86, (1R,2R)—N1-(5-Phenyloxazol-2-yl)-N2-((S)-1-(4-(trifluoromethoxy)phenyl)piperidin-3-yl)cyclohexane-1,2-diamine], the negative logarithm of the EC50 (pEC50) was 7.04.

As for `FC(F)(F)Oc1ccc(-c2cnc(N[C@@H]3CCCC[C@H]3N[C@H]3CCCN(c4ccc(OC(F)(F)F)cc4)C3)o2)cc1` [Example 87, (1R,2R)—N1-(5-(4-(Trifluoromethoxy)phenyl)oxazol-2-yl)-N2-((S)-1-(4-(trifluoromethoxy)phenyl)piperidin-3-yl)cyclohexane-1,2-diamine], the pEC50 was 6.73.

Consider `FC(F)(F)Oc1ccc(N2CCC[C@H](N[C@@H]3CCCC[C@H]3Nc3nccc(-c4ccccc4)n3)C2)cc1` [Example 88, (1R,2R)—N1-(4-Phenylpyrimidin-2-yl)-N2-((S)-1-(4-(trifluoromethoxy)phenyl)piperidin-3-yl)cyclohexane-1,2-diamine], for which the pEC50 was 6.15.

`FC(F)(F)Oc1ccc(-c2cnc(N[C@@H]3CCCC[C@H]3N[C@H]3CCCN(c4ccc(-n5cncn5)cc4)C3)o2)cc1` [Example 89, (1R,2R)—N1-((S)-1-(4-(1H-1,2,4-Triazol-1-yl)phenyl)piperidin-3-yl)-N2-(5-(4-(trifluoromethoxy)phenyl)oxazol-2-yl)cyclohexane-1,2-diamine bis-trifluoroacetate]: the pEC50 was 7.24.

As for `c1ccc(-c2cnc(N[C@@H]3CCCC[C@H]3N[C@H]3CCCN(c4ccc(-n5cncn5)cc4)C3)o2)cc1` [Example 90, (1R,2R)—N1-((S)-1-(4-(1H-1,2,4-Triazol-1-yl)phenyl)piperidin-3-yl)-N2-(5-phenyloxazol-2-yl)cyclohexane-1,2-diamine bis-trifluoroacetate], the pEC50 is 6.88.

With `c1ccc(-c2ccnc(N[C@@H]3CCCC[C@H]3N[C@H]3CCCN(c4ccc(-n5cncn5)cc4)C3)n2)cc1` [Example 91, (1R,2R)—N1-((S)-1-(4-(1H-1,2,4-Triazol-1-yl)phenyl)piperidin-3-yl)-N2-(4-phenylpyrimidin-2-yl)cyclohexane-1,2-diamine bis-trifluoroacetate], the negative-log EC50 (pEC50) was 6.54.

For the molecule `Ic1ccc(N2CCC[C@H](N[C@@H]3CCCC[C@H]3Nc3nccc(-c4ccccc4)n3)C2)cc1` [Example 92, (1R,2R)—N1-((S)-1-(4-Iodophenyl)piperidin-3-yl)-N2-(4-phenylpyrimidin-2-yl)cyclohexane-1,2-diamine bis-trifluoroacetate], the pEC50 was 6.33.

Regarding `FC(F)(F)Oc1ccc(-c2cnc(N[C@@H]3CCCC[C@H]3N[C@H]3CCCN(c4ccc(I)cc4)C3)o2)cc1` [Example 93, (1R,2R)—N1-((S)-1-(4-Iodophenyl)piperidin-3-yl)-N2-(5-(4-(trifluoromethoxy)phenyl)oxazol-2-yl)cyclohexane-1,2-diamine bis-trifluoroacetate], the pEC50 is 7.48.

Take `FC(F)(F)Oc1ccc(-c2cnc(N[C@@H]3CCCC[C@H]3N[C@H]3CCCN(c4ccc(C(F)(F)F)cn4)C3)o2)cc1` [Example 94, (1R,2R)—N1-(5-(4-(Trifluoromethoxy)phenyl)oxazol-2-yl)-N2-((S)-1-(5-(trifluoromethyl)pyridin-2-yl)piperidin-3-yl)cyclohexane-1,2-diamine]: the pEC50 was 6.68.

In the case of `N#Cc1ccc(N2C[C@@H]3CC(N[C@@H]4CCCC[C@H]4Nc4ncc(-c5ccc(OC(F)(F)F)cc5)o4)[C@H]2C3)cc1` (stereo partly drawn) [Example 95, 4-((1R,4R)-6-((1R,2R)-2-(5-(4-(Trifluoromethoxy)phenyl)oxazol-2-ylamino)cyclohexylamino)-2-azabicyclo[2.2.1]heptan-2-yl)benzonitrile], the pEC50 is 8.00.

For the molecule `C[C@]1(N[C@@H]2CCCC[C@H]2Nc2ncc(-c3ccc(OC(F)(F)F)cc3)o2)CCCN(c2ccc([N+](=O)[O-])cc2)C1` [Example 96, (1R,2R)—N1-((S)-3-Methyl-1-(4-nitrophenyl)piperidin-3-yl)-N2-(5-(4-(trifluoromethoxy)phenyl)oxazol-2-yl)cyclohexane-1,2-diamine bis-trifluoroacetate], the pEC50 was 9.00.

With `NC(=O)c1cccc(-c2cnc(N[C@@H]3CCCC[C@H]3N[C@H]3CCCN(c4cnc(C(F)(F)F)nc4)C3)o2)c1` [Example 97, 3-(2-(((1R,2R)-2-(((S)-1-(2-(trifluoromethyl)pyrimidin-5-yl)piperidin-3-yl)amino)cyclohexyl)amino)oxazol-5-yl)benzamide], the pEC50 is 8.22.

For `CCOC(=O)Nc1cccc(-c2cnc(N[C@@H]3CCCC[C@H]3N[C@H]3CCCN(c4cnc(C(F)(F)F)cn4)C3)o2)c1` [Example 98, Ethyl 3-(2-((1R,2R)-2-((S)-1-(5-(trifluoromethyl)pyrazin-2-yl)piperidin-3-ylamino)cyclohexylamino)oxazol-5-yl)phenylcarbamate], the pEC50 was 9.15.

The record behind these values is patent US8815909B2, “Diaminocyclohexane compounds and uses thereof” (Bristol-Myers Squibb Company, priority 2011, dated 2014).
